Active and inactive are the calls of the source. The rule behind the calls is not given here.
Columns and labels:
Albumin = Albumin (Bos taurus, UniProt P02769); experiment: Binding affinity to bovine serum albumin by ultrafiltration method; format: ADME; details: cattle, bovine serum albumin; read-out: PPB (converted)
Leishmania major [1] = experiment: Antileishmanial activity against Leishmania major MHOM/IL/81/FE/BNI promastigotes by alamar blue assay; format: functional, organism-based; details: Leishmania major
[2] = Antiproliferative activity against mouse J774.1 cells after 48 hrs by alamar blue assay; format: cell-based; details: Mus musculus, J774.1, 48 h
[3] = Selectivity index, ratio of IC50 for mouse J774.1 cells to IC50 for Leishmania major MHOM/IL/81/FE/BNI promastigotes; format: toxicity; details: J774.1 cells, read-out: Ratio IC50
Leishmania major [4] = experiment: Antileishmanial activity against Leishmania major MHOM/IL/81/FE/BNI promastigotes infected in BALB/c mouse peritoneal macrophages assessed as decrease in infection rate after 48 hrs by fluorescence microscopy; format: functional, organism-based
[5] = Cytotoxicity against BALB/c mouse peritoneal macrophages after 48 hrs by alamar blue assay; format: cell-based; details: Macrophage
[6] = Ratio of IC50 for BALB/c mouse peritoneal macrophages to EC50 for Leishmania major MHOM/IL/81/FE/BNI promastigotes
Macrophage [7] = experiment: Reduction of IL6 production in IFN-gamma-stimulated BALB/c mouse peritoneal macrophages infected with Leishmania major MHOM/IL/81/FE/BNI promastigotes at 3 uM after 24 hrs by sandwich ELISA; format: functional, cell-based
Cytochrome P450 2D6 [8] = target: T1, Cytochrome P450 2D6 (Homo sapiens, UniProt P10635); experiment: Inhibition of human CYP2D6 by Lineweaver-Burke plot; format: ADME
Macrophage [9] = experiment: Reduction of TNFalpha production in LPS-stimulated BALB/c mouse peritoneal macrophages infected with Leishmania major MHOM/IL/81/FE/BNI promastigotes at 3 uM after 24 hrs by sandwich ELISA; format: functional, cell-based
Cytochrome P450 2C9 = Cytochrome P450 2C9 (Homo sapiens, UniProt P11712); experiment: Inhibition of human CYP2C9 at 100 uM by LC/ESI-MS analysis; format: ADME
Macrophage [10] = experiment: Decrease in IL10 secretion in LPS-stimulated BALB/c mouse peritoneal macrophages infected with Leishmania major MHOM/IL/81/FE/BNI promastigotes at 3 uM after 24 hrs by sandwich ELISA; format: functional, cell-based
[11] = Cytotoxicity against mouse NIH/3T3 after 48 hrs by alamar blue assay; format: cell-based; details: NIH3T3, 48 h
Cytochrome P450 3A4 = Cytochrome P450 3A4 (Homo sapiens, UniProt P08684); experiment: Inhibition of human CYP3A4 at 100 uM by LC/ESI-MS analysis; format: ADME
Macrophage [12] = experiment: Reduction of IL6 production in LPS-stimulated BALB/c mouse peritoneal macrophages infected with Leishmania major MHOM/IL/81/FE/BNI promastigotes at 3 uM after 24 hrs by sandwich ELISA; format: functional, cell-based
Cytochrome P450 2D6 [13] = target: T1, Cytochrome P450 2D6; experiment: Inhibition of human CYP2D6 at 1 to 100 uM by LC/ESI-MS analysis; format: ADME
Macrophage [14] = experiment: Reduction of TNFalpha production in IFN-gamma-stimulated BALB/c mouse peritoneal macrophages infected with Leishmania major MHOM/IL/81/FE/BNI promastigotes at 3 uM after 24 hrs by sandwich ELISA; format: functional, cell-based
Cytochrome P450 2C19 = Cytochrome P450 2C19 (Homo sapiens, UniProt P33261); experiment: Inhibition of human CYP2C19 at 100 uM by LC/ESI-MS analysis; format: ADME
Leishmania major [15] = experiment: Antileishmanial activity against Leishmania major MHOM/IL/81/FE/BNI promastigotes infected in BALB/c mouse peritoneal macrophages assessed as decrease in infection rate after 48 hrs by fluorescence microscopy in presence of interferon-gamma; format: functional, organism-based
[16] = Cytotoxicity against BALB/c mouse DC after 48 hrs by alamar blue assay
Cytochrome P450 2D6 [17] = target: T1, Cytochrome P450 2D6; experiment: Inhibition of human CYP2D6 expressed in baculovirus-infected insect cell system; format: ADME
Macrophage [18] = experiment: Increase in nitric oxide production in LPS-stimulated BALB/c mouse peritoneal macrophages infected with Leishmania major MHOM/IL/81/FE/BNI promastigotes at 3 uM after 48 hrs by […]; format: functional, cell-based
Macrophage [19] = experiment: Decrease in IL10 secretion in IFN-gamma-stimulated BALB/c mouse peritoneal macrophages infected with Leishmania major MHOM/IL/81/FE/BNI promastigotes at 3 uM after 24 hrs by sandwich ELISA; format: functional, cell-based
Macrophage [20] = experiment: Increase in TGFbeta secretion in BALB/c mouse peritoneal macrophages infected with Leishmania major MHOM/IL/81/FE/BNI promastigotes at 3 uM after 24 hrs by sandwich ELISA; format: functional, cell-based
Macrophage [21] = experiment: Increase in TGFbeta secretion in IFN-gamma-stimulated BALB/c mouse peritoneal macrophages infected with Leishmania major MHOM/IL/81/FE/BNI promastigotes at 3 uM after 24 hrs by sandwich ELISA; format: functional, cell-based

Chain of Albumin (P02769 whole entry): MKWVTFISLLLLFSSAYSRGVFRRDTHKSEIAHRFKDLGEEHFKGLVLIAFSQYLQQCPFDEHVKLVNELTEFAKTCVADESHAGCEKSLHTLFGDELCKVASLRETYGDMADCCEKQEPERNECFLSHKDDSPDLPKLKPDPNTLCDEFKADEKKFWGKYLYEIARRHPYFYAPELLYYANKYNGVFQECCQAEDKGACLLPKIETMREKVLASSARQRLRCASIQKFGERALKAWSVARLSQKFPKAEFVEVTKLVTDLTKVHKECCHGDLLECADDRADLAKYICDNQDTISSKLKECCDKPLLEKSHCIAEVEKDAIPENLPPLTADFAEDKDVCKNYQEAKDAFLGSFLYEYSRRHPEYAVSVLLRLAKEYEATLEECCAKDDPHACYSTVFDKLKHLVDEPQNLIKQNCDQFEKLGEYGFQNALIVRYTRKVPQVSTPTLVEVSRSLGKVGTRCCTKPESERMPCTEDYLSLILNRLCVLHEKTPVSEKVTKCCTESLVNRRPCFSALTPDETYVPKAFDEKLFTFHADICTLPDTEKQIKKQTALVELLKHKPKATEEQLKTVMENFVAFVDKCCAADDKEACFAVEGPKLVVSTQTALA
T1 sequence (P10635 whole entry): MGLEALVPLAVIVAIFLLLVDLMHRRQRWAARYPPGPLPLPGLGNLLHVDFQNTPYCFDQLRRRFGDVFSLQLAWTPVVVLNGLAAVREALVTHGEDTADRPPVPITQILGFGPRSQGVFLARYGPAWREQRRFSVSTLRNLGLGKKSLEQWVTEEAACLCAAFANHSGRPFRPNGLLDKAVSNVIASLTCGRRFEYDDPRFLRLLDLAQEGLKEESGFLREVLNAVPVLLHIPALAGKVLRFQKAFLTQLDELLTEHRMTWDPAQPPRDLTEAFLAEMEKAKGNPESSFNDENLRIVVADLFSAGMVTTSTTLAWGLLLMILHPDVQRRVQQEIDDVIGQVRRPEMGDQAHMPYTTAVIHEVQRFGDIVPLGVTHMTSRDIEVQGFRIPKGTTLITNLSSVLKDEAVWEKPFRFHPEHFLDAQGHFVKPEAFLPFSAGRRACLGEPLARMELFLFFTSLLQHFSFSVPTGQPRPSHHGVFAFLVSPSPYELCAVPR
Chain of Cytochrome P450 3A4 (P08684 whole entry): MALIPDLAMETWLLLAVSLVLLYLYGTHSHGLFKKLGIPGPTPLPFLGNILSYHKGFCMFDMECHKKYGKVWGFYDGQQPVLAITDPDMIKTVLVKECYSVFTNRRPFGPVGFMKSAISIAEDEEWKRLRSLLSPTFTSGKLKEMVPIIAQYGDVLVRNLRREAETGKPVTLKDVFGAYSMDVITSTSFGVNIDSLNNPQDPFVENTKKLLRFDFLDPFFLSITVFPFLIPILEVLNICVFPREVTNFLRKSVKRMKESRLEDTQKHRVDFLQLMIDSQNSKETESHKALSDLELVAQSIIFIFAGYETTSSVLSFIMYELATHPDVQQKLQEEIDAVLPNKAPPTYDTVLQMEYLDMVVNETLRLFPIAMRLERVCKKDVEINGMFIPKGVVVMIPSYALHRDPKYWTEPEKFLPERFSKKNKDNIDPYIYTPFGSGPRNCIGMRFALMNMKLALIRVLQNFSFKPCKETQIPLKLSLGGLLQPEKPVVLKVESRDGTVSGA
Chain of Cytochrome P450 2C19 (P33261 whole entry): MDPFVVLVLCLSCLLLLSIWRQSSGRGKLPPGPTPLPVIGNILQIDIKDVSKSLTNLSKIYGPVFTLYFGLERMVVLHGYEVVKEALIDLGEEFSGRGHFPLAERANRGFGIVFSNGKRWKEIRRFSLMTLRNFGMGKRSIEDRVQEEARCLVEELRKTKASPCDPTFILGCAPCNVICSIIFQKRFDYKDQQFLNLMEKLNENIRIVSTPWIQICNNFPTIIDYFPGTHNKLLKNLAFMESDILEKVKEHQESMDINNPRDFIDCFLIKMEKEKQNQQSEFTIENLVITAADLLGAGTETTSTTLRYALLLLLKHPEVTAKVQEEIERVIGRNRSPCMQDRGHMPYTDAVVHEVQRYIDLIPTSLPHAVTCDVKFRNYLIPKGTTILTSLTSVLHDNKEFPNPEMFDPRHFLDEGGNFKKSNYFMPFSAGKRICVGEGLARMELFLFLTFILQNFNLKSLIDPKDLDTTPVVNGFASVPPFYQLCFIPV
Chain of Cytochrome P450 2C9 (P11712 whole entry): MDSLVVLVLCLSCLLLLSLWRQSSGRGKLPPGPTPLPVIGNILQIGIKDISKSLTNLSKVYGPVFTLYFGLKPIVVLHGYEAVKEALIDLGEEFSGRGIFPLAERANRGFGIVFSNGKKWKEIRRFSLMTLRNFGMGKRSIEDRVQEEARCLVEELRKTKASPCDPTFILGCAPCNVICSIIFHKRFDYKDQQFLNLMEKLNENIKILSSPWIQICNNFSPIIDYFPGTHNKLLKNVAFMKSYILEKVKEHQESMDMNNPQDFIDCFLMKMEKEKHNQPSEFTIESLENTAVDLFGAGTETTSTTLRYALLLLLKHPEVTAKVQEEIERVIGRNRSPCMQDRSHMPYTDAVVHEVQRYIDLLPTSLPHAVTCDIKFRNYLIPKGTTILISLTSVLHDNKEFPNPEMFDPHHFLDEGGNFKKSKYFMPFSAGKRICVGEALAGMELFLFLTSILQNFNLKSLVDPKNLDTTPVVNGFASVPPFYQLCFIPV

COc1cc(OC)c2c(C)[n+](-c3ccc4scnc4c3)c(C)cc2c1
fraction unbound (Albumin): 0.671
IC50 (Leishmania major [1]): > 100 µM
IC50 [2]: 63.2 µM

COc1cc(OC)c2c(C)[n+](-c3cccc4c3C(=O)c3ccccc3C4=O)c(C)cc2c1
IC50 (Leishmania major [1]): > 100 µM
IC50 [2]: > 100 µM

COc1cc(OC)c2c(C)[n+](-c3ccc(C(C)C)cc3C(C)C)c(C)cc2c1
fraction unbound (Albumin): 0.416
IC50 (Leishmania major [1]): 0.54 µM
selectivity ratio [3]: 4.17
IC50 [2]: 2.25 µM

COc1cc(OC)c2c(C)[n+](-c3ccc4ccccc4c3)c(C)cc2c1
IC50 (Leishmania major [1]): 3.37 µM
selectivity ratio [3]: 2.41
IC50 [2]: 8.13 µM

CCCCc1ccc(-[n+]2c(C)cc3cc(OC)cc(OC)c3c2C)cc1
IC50 (Leishmania major [1]): 2.69 µM
selectivity ratio [3]: < 1
IC50 [2]: 4.47 µM

C[C@@H]1[C@H](O)[C@@H](C)/C=C/C=C/C=C/C=C/C=C/C=C/C=C/[C@H](O[C@@H]2O[C@H](C)[C@@H](O)[C@H](N)[C@@H]2O)C[C@@H]2O[C@](O)(C[C@@H](O)C[C@@H](O)[C@H](O)CC[C@@H](O)C[C@@H](O)CC(=O)O[C@H]1C)C[C@H](O)[C@H]2C(=O)O [AMPHOTERICIN B]
EC50 (Leishmania major [4]): 0.075 µM
IC50 [5]: > 70 µM
IC50 (Leishmania major [1]): 5.07 µM
selectivity ratio [3]: > 14
Ratio IC50/EC50 [6]: >1000
IC50 [2]: > 70 µM

COc1cc(OC)c2c(C)[n+](-c3ccc(C)cc3)c(C)cc2c1.F[B-](F)(F)F
EC50 (Leishmania major [4]): 0.092 µM
Activity (Macrophage [7]): Active
IC50 [5]: 12.8 µM
fraction unbound (Albumin): 0.441
Ki (Cytochrome P450 2D6 [8]): 0.0281 µM
Activity (Macrophage [9]): Active
IC50 (Leishmania major [1]): 2.64 µM
Activity (Cytochrome P450 2C9): Active
Activity (Macrophage [10]): inactive
IC50 [11]: 49.8 µM
Activity (Cytochrome P450 3A4): Active
Activity (Macrophage [12]): Active
Activity (Cytochrome P450 2D6 [13]): Active
Activity (Macrophage [14]): Active
Activity (Cytochrome P450 2C19): Active
Activity (Leishmania major [15]): Active
IC50 [16]: 24 µM
IC50 (Cytochrome P450 2D6 [17]): 0.0561 µM
Activity (Macrophage [18]): inactive
Activity (Macrophage [19]): inactive
selectivity ratio [3]: 5.55
Ratio IC50/EC50 [6]: 138
IC50 [2]: 14.6 µM

COc1cc(OC)c2c(C)[n+](-c3ccc(C(C)(C)C)cc3)c(C)cc2c1
IC50 (Leishmania major [1]): 2.67 µM
selectivity ratio [3]: 1.6
IC50 [2]: 4.28 µM

COc1cc2c(c(OC)c1)C(C)N(c1ccc(OC)c3c(OC)cc(C)cc13)[C@@H](C)C2 (mixture of isomers)
IC50 (Leishmania major [1]): 64.8 µM
IC50 [2]: > 100 µM

COc1cc(OC)c2c(C)[n+](-c3ccc(C#N)cc3)c(C)cc2c1
IC50 (Leishmania major [1]): > 100 µM
IC50 [2]: > 100 µM

CCc1ccc(-[n+]2c(C)cc3cc(OC)cc(OC)c3c2C)cc1
fraction unbound (Albumin): 0.475
IC50 (Leishmania major [1]): 5.53 µM
selectivity ratio [3]: < 1
IC50 [2]: 4.5 µM

COc1cc(OC)c2c(C)[n+](-c3cccc4ccccc34)c(C)cc2c1
Activity (Macrophage [7]): Active
Activity (Macrophage [9]): Active
Activity (Macrophage [10]): inactive
Activity (Macrophage [20]): Active
Activity (Macrophage [12]): Active
Activity (Macrophage [14]): Active
Activity (Macrophage [18]): inactive
Activity (Macrophage [19]): inactive
Activity (Macrophage [21]): Active

COc1cc(OC)c2c(C)[n+](-c3ccc4cc5ccccc5cc4c3)c(C)cc2c1
IC50 (Leishmania major [1]): 0.67 µM
selectivity ratio [3]: < 1
IC50 [2]: 0.23 µM

COc1cc(OC)c2c(C)[n+](-c3cccc(C)c3C)c(C)cc2c1
IC50 (Leishmania major [1]): 11.6 µM
selectivity ratio [3]: < 1
IC50 [2]: 10.5 µM

COc1cc(OC)c2c(C)[n+](-c3ccc4ncccc4c3)c(C)cc2c1
IC50 (Leishmania major [1]): > 100 µM
IC50 [2]: > 100 µM

COc1cc(OC)c2c(C)[n+](-c3c(C)cc(C)cc3C)c(C)cc2c1
IC50 (Leishmania major [1]): 1.49 µM
selectivity ratio [3]: 2.82
IC50 [2]: 4.2 µM

COc1cc(OC)c2c(C)[n+](-c3ccc(OC(C)=O)cc3)c(C)cc2c1
IC50 (Leishmania major [1]): > 100 µM
IC50 [2]: > 100 µM

Source: ChEMBL document CHEMBL1143311, “Structure-activity relationship and studies on the molecular mechanism of leishmanicidal N,C-coupled arylisoquinolinium salts” (J Med Chem, 2009)
